Assay results from patent US9283222B2 (priority 2006, dated 2016).
Where two headings read alike, the source gives them in different places.

Columns and labels:
PARP in C41 cells = PARP in C41 cells (Homo sapiens (Human), UniProt P09874)
[1] = target: Recombinant Human Poly(ADP-Ribose) Polymerase (PARP), PARP-1 (Homo sapiens (Human), UniProt P09874); conditions: read-out: PARP-1 (Ki)
[2] = Table 2, A2 is C1-alkyl versus no A2 (bond)
[3] = Table 3, H analogs versus para-F analogs
[4] = Table 3, C41 cells, ratio to comparator EC50

Chain of Recombinant Human Poly(ADP-Ribose) Polymerase (PARP), PARP-1 (P09874 whole entry): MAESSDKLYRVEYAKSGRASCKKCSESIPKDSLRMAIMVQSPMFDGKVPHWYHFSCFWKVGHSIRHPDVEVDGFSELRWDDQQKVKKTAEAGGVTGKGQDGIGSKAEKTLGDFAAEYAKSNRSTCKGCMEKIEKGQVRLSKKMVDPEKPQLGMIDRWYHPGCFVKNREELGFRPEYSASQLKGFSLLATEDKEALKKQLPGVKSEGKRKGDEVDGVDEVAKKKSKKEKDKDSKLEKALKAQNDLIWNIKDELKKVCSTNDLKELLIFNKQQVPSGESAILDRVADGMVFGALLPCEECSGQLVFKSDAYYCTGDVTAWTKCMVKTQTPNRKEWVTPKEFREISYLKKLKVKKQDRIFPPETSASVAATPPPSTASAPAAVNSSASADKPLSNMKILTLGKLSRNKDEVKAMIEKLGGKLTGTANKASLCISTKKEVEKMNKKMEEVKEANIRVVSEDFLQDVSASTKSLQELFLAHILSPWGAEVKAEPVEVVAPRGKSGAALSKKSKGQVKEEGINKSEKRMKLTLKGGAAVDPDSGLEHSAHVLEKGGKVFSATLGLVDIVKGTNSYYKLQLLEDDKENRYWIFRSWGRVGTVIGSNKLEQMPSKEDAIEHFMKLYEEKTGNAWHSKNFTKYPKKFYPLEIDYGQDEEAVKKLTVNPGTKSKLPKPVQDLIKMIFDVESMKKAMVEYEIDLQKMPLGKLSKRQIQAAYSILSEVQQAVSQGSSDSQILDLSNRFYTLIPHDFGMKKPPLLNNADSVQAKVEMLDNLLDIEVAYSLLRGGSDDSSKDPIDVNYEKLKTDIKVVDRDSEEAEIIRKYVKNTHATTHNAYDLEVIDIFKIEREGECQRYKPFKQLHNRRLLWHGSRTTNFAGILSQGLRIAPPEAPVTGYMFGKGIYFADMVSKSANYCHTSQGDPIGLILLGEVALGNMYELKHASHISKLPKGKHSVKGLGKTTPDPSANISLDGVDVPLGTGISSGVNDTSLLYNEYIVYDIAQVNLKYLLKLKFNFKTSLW
Chain of PARP in C41 cells (P09874 whole entry): as above

Question: For `O=C1CCN1c1cc(Cc2n[nH]c(=O)c3c2CCCC3)ccc1F`, which “Cell Ratio EC50” value (PARP in C41 cells; Table 2, C41 cells, ratio to comparator EC50) is on record?
Answer: 16.4

Question: And the Ki [1, 2]?
Answer: 6 nM

Question: Which “Cell EC50 ratio” value (PARP in C41 cells) does the source give for `NCC(=O)Nc1cc(Cc2n[nH]c(=O)c3c2CCCC3)ccc1F` here?
Answer: 5.8

Question: What about the Ki [1, 3] of the same compound?
Answer: 2.9 nM

Question: What does the source list for `O=C(Nc1cc(Cc2n[nH]c(=O)c3c2CCCC3)ccc1F)C1CNC1`?
Answer: Cell EC50 ratio (PARP in C41 cells): 34.4; Ki [1, 3]: 0.7 nM

Question: With `O=C1CCC(=O)N1c1cccc(Cc2n[nH]c(=O)c3c2CCCC3)c1` as the compound, how does the “Cell EC50 ratio” value (PARP in C41 cells; [4]) read?
Answer: 1.7

Question: What about the Ki [1, 3] of the same compound?
Answer: 2 nM

Question: With `O=C1CCC(=O)N1c1cc(Cc2n[nH]c(=O)c3c2CCCC3)ccc1F` as the compound, how does the “Cell EC50 ratio” value (PARP in C41 cells; [4]) read?
Answer: 0.19

Question: And the Ki [1, 3]?
Answer: 1.1 nM

Question: `O=C(CCN1CCCCC1)Nc1cc(Cc2n[nH]c(=O)c3c2CCCC3)ccc1F` was tested. Which “Cell EC50 ratio” value (PARP in C41 cells) did it give?
Answer: 5.6

Question: And the Ki [1, 3]?
Answer: 18.4 nM

Question: How did the “Cell EC50 ratio” value (PARP in C41 cells; [4]) turn out when `CN(C)CCN(C)C(=O)c1cccc(Cc2n[nH]c(=O)c3c2CCCC3)c1` was run?
Answer: 3

Question: And the Ki [1, 3]?
Answer: 13 nM

Question: Which results are given for `O=C1CCCN1c1cc(Cc2n[nH]c(=O)c3c2CCCC3)ccc1F` [drawing 7]?
Answer: Cell Ratio EC50 (PARP in C41 cells): 0.85; Ki [1, 2]: 1.2 nM

Question: For `NCC(=O)Nc1cccc(Cc2n[nH]c(=O)c3c2CCCC3)c1` [drawing 10], which “Cell EC50 ratio” value (PARP in C41 cells; [4]) is on record?
Answer: 22.5

Question: What about the Ki [1, 3] of the same compound?
Answer: 12 nM

Question: How did the “Cell EC50 ratio” value (PARP in C41 cells) turn out when `O=C(Nc1cccc(Cc2n[nH]c(=O)c3c2CCCC3)c1)C1CNC1` [drawing 12] was run?
Answer: 246

Question: What about the Ki [1, 3] of the same compound?
Answer: 6.3 nM

Question: Which “Cell EC50 ratio” value (PARP in C41 cells; [4]) does the source give for `COc1ccc(C(=O)CCC(=O)Nc2cccc(Cc3n[nH]c(=O)c4c3CCCC4)c2)cc1` [drawing 14] here?
Answer: 20.9

Question: What about the Ki [1, 3] of the same compound?
Answer: 1.9 nM

Question: `COc1ccc(C(=O)CCC(=O)Nc2cc(Cc3n[nH]c(=O)c4c3CCCC4)ccc2F)cc1` [drawing 15] was tested. Which “Cell EC50 ratio” value (PARP in C41 cells; [4]) did it give?
Answer: 2.6

Question: What about the Ki [1, 3] of the same compound?
Answer: 0.7 nM

Question: How did the “Cell EC50 ratio” value (PARP in C41 cells; [4]) turn out when `O=C1CCCN1c1cccc(Cc2n[nH]c(=O)c3c2CCCC3)c1` [drawing 16] was run?
Answer: 40.9

Question: What about the Ki [1, 3] of the same compound?
Answer: 39.6 nM

Question: Which results are given for `O=C1CCCN1c1cc(Cc2n[nH]c(=O)c3c2CCCC3)ccc1F` [drawing 17]?
Answer: Cell EC50 ratio (PARP in C41 cells): 0.85; Ki [1, 3]: 1.2 nM

Question: Which results are given for `O=C(CCCC(=O)Nc1cccc(Cc2n[nH]c(=O)c3c2CCCC3)c1)Nc1ccccc1` [drawing 20]?
Answer: Cell EC50 ratio (PARP in C41 cells; [4]): 3.2; Ki [1, 3]: 3.2 nM

Question: What does the source list for `O=C(CCCC(=O)Nc1cc(Cc2n[nH]c(=O)c3c2CCCC3)ccc1F)Nc1ccccc1` [drawing 21]?
Answer: Cell EC50 ratio (PARP in C41 cells; [4]): 0.34; Ki [1, 3]: 0.6 nM

Question: Which results are given for `Cc1c(C(=O)Nc2cccc(Cc3n[nH]c(=O)c4c3CCCC4)c2)cnn1-c1ccccc1` [drawing 22]?
Answer: Cell EC50 ratio (PARP in C41 cells; [4]): 14.1; Ki [1, 3]: 9 nM

Question: What does the source list for `Cc1c(C(=O)Nc2cc(Cc3n[nH]c(=O)c4c3CCCC4)ccc2F)cnn1-c1ccccc1` [drawing 23]?
Answer: Cell EC50 ratio (PARP in C41 cells; [4]): 17.6; Ki [1, 3]: 15.8 nM

Question: `O=C(c1cccc(Cc2n[nH]c(=O)c3c2CCCC3)c1)N1CCN(c2ncccn2)CC1` [drawing 26] was tested. Which “Cell EC50 ratio” value (PARP in C41 cells; [4]) did it give?
Answer: 0.93

Question: And the Ki [1, 3]?
Answer: 0.8 nM

Question: With `O=C(c1cc(Cc2n[nH]c(=O)c3c2CCCC3)ccc1F)N1CCN(c2ncccn2)CC1` [drawing 27] as the compound, how does the “Cell EC50 ratio” value (PARP in C41 cells; [4]) read?
Answer: 0.3

Question: And the Ki [1, 3]?
Answer: 0.7 nM

Question: For `CC(=O)N1CCN(C(=O)c2cccc(Cc3n[nH]c(=O)c4c3CCCC4)c2)CC1` [drawing 28], which “Cell EC50 ratio” value (PARP in C41 cells) is on record?
Answer: 6.1

Question: And the Ki [1, 3]?
Answer: 3 nM

Question: What does the source list for `CC(=O)N1CCN(C(=O)c2cc(Cc3n[nH]c(=O)c4c3CCCC4)ccc2F)CC1` [drawing 29]?
Answer: Cell EC50 ratio (PARP in C41 cells; [4]): 2.3; Ki [1, 3]: 0.1 nM

Question: How did the “Cell EC50 ratio” value (PARP in C41 cells; [4]) turn out when `CCN1CCN(C(=O)c2cccc(Cc3n[nH]c(=O)c4c3CCCC4)c2)CC1` [drawing 30] was run?
Answer: 1.8

Question: And the Ki [1, 3]?
Answer: 10 nM

Question: Which “Cell EC50 ratio” value (PARP in C41 cells; [4]) does the source give for `CCN1CCN(C(=O)c2cc(Cc3n[nH]c(=O)c4c3CCCC4)ccc2F)CC1` [drawing 31] here?
Answer: 0.4

Question: And the Ki [1, 3]?
Answer: 1.8 nM

Question: With `O=C(c1cccc(Cc2n[nH]c(=O)c3c2CCCC3)c1)N1CCN(c2ccccn2)CC1` [drawing 32] as the compound, how does the “Cell EC50 ratio” value (PARP in C41 cells; [4]) read?
Answer: 1.9

Question: And the Ki [1, 3]?
Answer: 3 nM

Question: With `O=C(c1cc(Cc2n[nH]c(=O)c3c2CCCC3)ccc1F)N1CCN(c2ccccn2)CC1` [drawing 33] as the compound, how does the “Cell EC50 ratio” value (PARP in C41 cells; [4]) read?
Answer: 0.4

Question: What about the Ki [1, 3] of the same compound?
Answer: 2 nM

Question: `O=C(c1cccc(Cc2n[nH]c(=O)c3c2CCCC3)c1)N1CCN(c2ccccc2)CC1` [drawing 34] was tested. Which “Cell EC50 ratio” value (PARP in C41 cells; [4]) did it give?
Answer: 3.2

Question: What about the Ki [1, 3] of the same compound?
Answer: 3 nM

Question: `O=C(c1cc(Cc2n[nH]c(=O)c3c2CCCC3)ccc1F)N1CCN(c2ccccc2)CC1` [drawing 35] was tested. Which “Cell EC50 ratio” value (PARP in C41 cells; [4]) did it give?
Answer: 0.9

Question: And the Ki [1, 3]?
Answer: 3 nM
